# Assay results published in ChEMBL document CHEMBL1201862, “PubChem BioAssay data set” (2004).
# The source made the active and inactive calls.
# Key:
# [1] = molecular target: DNA dC->dU-editing enzyme APOBEC-3A (Homo sapiens, UniProt P31941); experiment: APOBEC3A DNA deaminase inhibitors, dose response, biochemical (AID 504722); format: functional
# [2] = molecular target: T1, Leucine aminopeptidase (Plasmodium falciparum 3D7, UniProt Q8IL11); experiment: P. falciparum M17LAP inhibitors, primary screen, biochemical, fluorogenic H-Leu-NHMec substrate, 1536-well (AID 1619); format: functional
# T1 sequence (Q8IL11 whole entry): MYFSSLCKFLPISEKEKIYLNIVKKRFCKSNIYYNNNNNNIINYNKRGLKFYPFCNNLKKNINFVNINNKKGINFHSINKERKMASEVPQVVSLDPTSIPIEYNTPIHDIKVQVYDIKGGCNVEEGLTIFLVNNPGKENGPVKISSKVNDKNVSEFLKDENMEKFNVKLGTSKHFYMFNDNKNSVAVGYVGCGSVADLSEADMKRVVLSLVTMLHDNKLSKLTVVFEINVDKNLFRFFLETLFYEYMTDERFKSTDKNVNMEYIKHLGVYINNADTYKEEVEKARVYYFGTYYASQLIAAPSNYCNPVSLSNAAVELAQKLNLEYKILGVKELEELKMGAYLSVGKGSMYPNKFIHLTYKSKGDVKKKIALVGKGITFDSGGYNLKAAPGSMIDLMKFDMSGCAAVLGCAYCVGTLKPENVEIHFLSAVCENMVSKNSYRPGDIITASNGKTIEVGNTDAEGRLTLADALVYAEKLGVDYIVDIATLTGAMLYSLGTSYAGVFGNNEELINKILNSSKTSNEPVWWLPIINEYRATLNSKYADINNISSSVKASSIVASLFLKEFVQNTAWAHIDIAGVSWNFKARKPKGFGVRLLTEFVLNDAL
# [3] = molecular target: DNA dC->dU-editing enzyme APOBEC-3G (Homo sapiens, UniProt Q9HC16); experiment: Dose Response confirmation of small molecule APOBEC3G DNA Deaminase Inhibitors via a fluorescence-based single-stranded DNA deaminase assay. [Related pubchem assays (depositor defined):AID493012, AID493028]; format: functional
# [4] = molecular target: Glyceraldehyde-3-phosphate dehydrogenase (Homo sapiens, UniProt P04406)
# Chain of Glyceraldehyde-3-phosphate dehydrogenase (P04406 whole entry): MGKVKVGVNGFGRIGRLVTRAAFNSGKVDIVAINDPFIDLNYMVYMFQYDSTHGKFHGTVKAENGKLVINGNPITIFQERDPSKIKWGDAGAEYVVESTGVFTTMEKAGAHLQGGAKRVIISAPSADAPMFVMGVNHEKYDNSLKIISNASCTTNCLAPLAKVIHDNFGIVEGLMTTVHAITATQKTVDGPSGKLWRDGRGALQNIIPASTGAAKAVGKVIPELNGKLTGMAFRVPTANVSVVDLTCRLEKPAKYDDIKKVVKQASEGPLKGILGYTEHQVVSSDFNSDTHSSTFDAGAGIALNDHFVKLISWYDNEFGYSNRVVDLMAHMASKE
# [5] = molecular target: T2, Dual specificity protein phosphatase 6 (Rattus norvegicus, UniProt Q64346); format: functional
# T2 sequence (Q64346 whole entry): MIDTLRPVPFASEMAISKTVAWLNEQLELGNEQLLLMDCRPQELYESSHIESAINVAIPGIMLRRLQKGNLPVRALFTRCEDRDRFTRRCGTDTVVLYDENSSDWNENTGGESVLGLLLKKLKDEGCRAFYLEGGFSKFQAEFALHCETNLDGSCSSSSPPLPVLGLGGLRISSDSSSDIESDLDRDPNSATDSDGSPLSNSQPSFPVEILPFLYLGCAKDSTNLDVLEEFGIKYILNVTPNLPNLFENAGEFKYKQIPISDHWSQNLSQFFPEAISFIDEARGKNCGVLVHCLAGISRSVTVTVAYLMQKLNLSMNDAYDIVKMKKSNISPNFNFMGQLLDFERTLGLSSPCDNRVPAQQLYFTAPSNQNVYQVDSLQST
# [6] = molecular target: T2, Dual specificity protein phosphatase 6
# [7] = molecular target: T3, Tyrosine-protein phosphatase non-receptor type 7 (Homo sapiens, UniProt P35236); format: functional
# T3 sequence (P35236 whole entry): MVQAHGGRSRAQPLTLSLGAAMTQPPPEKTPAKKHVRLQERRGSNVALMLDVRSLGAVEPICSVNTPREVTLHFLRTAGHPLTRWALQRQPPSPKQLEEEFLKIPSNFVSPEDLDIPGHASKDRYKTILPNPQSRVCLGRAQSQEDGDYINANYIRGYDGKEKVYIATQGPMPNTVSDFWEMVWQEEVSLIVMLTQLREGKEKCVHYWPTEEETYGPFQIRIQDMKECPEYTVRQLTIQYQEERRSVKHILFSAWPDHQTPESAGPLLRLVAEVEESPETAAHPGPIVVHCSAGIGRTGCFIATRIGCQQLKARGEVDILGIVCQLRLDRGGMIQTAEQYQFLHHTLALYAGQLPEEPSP
# [8] = molecular target: E3 ubiquitin-protein ligase XIAP (Homo sapiens, UniProt P98170); experiment: Counter Screen using XIAP-Bir3 for Chemical Antagonists of Bir1/2 domains of IAP-family anti-apoptotic proteins. [Related pubchem assays (depositor defined):AID1018, AID1449, AID1514, AID1638, AID1749, AID1750, AID488957, AID488963]
# [9] = molecular target: T4, NADPH oxidase 1 (Homo sapiens, UniProt Q9Y5S8); format: functional, cell-based;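 also: Cell-based assay with luminescence read-out, IC50 derived from inhibitor dose-response curves; intracellular ROS from endogenous NOX1 in intact HT29 colon cancer cells; potency of inhibitors that lower the ROS luminescence signal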
# T4 sequence (Q9Y5S8 whole entry): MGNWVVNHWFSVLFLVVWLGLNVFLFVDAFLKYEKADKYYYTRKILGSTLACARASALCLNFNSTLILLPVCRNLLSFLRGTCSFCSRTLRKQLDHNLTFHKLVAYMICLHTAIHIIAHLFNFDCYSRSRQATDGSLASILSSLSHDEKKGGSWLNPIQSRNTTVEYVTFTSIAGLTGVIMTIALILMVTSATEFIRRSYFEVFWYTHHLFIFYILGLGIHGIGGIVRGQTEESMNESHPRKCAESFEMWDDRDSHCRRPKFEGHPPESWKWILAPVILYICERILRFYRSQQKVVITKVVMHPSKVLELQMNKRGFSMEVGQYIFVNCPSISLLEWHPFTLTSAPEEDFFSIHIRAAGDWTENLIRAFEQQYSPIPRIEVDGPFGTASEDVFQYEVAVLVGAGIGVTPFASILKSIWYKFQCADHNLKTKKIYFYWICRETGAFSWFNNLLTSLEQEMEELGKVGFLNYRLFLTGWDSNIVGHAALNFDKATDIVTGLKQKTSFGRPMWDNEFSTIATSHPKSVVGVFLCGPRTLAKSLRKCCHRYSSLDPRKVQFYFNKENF
# [10] = molecular target: Scavenger receptor class B member 1 (Mus musculus, UniProt Q61009); experiment: inhibitors of SR-BI mediated HDL lipid uptake, dose response, ldlA[mSR-BI] cells, fluorescence, cherry pick (AID 493194); format: functional, cell-based;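 also: cellular uptake of fluorescent DiI-labeled HDL measured as cell fluorescence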
# [11] = molecular target: Peroxisome proliferator-activated receptor gamma/Nuclear receptor coactivator 2 (Homo sapiens, UniProt P37231); format: functional;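 also: agonist potency for raising coactivator recruitment to the receptor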
# [12] = molecular target: Peroxisome proliferator-activated receptor gamma/Nuclear receptor coactivator 3 (Homo sapiens, UniProt P37231); format: functional;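 also: agonist potency for raising coactivator recruitment to the receptor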
# [13] = molecular target: Peroxisome proliferator-activated receptor gamma/Nuclear receptor coactivator 1 (Homo sapiens, UniProt P37231); format: functional;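 also: agonist potency as compounds enhance coactivator SRC-1 recruitment to PPARgamma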
# [14] = molecular target: Beta-2 adrenergic receptor (Homo sapiens, UniProt P07550); experiment: beta2AR agonists driving receptor internalization, dose response, cell-based, FAP fluorogen, flow cytometry, cherry pick 1 (AID 588763); format: functional
# [15] = HepG2 cell cytotoxicity, dose response, cytotoxicity control for Shn3 inhibitor project, CellTiter-Glo, cherry-picked (AID 624134); format: functional, cell-based
# [16] = growth suppression of beta-catenin-knockout colon cells, dose response, cell-based, HCT116, human colon tumor (AID 1045); format: functional;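 also: HCT116 colon tumor cells with beta catenin knocked out; cells exposed to compound for 60 hours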
# [17] = Shn3 3'UTR reporter inhibitors, dose response, cell-based, Clone20 osteoblasts, firefly luciferase, cherry-picked (AID 624132); format: functional;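 also: firefly luciferase luminescence from reporter carrying the Shn3 3'UTR in osteoblasts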
# [18] = growth suppression of PTEN-null colon cells, dose response, cell-based, HCT116 PTEN knockout (AID 1047); format: functional;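 also: HCT116 colon tumor cells with PTEN knocked out; cells exposed to compound for 60 hours before readout; potency for loss of cell viability measured by luminescence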
# [19] = control 3'UTR Renilla luciferase suppression, dose response, counter-screen for Shn3 inhibitor project, cell-based, Clone20-Shn3RL, cherry-picked (AID 624133); format: functional
# [20] = molecular target: T5, Bcl-2-like protein 10 (Homo sapiens, UniProt Q9HD36); experiment: Biochemical TR3 FP assay of Bcl-B inhibitor potency, EC50 (AID 1243); format: functional
# T5 sequence (Q9HD36 whole entry): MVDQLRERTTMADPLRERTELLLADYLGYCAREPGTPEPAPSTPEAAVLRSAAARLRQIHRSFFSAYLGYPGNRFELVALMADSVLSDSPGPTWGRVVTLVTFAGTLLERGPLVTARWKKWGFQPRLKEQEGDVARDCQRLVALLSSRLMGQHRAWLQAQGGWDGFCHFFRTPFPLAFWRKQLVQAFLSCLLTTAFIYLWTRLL
# [21] = molecular target: Mucolipin-3 (Homo sapiens, UniProt Q8TDD5); experiment: Dose response cell-based high-throughput screening assay for agonists of the transient receptor potential channel ML3 (TRPML3). [Related pubchem assays: 1526, 1424, 1448 ]; format: functional
# [22] = molecular target: Ion channel NompC (Danio rerio, UniProt Q7T1G6); experiment: Fluorescence counterscreen assay for TRPML3 agonists: dose response cell-based high-throughput screening assay to identify agonists of the transient receptor potential channel N1 (TRPN1). [Related pubchem assays: 1526, 1424, 1448 ]; format: functional
# Chain of Ion channel NompC (Q7T1G6 whole entry): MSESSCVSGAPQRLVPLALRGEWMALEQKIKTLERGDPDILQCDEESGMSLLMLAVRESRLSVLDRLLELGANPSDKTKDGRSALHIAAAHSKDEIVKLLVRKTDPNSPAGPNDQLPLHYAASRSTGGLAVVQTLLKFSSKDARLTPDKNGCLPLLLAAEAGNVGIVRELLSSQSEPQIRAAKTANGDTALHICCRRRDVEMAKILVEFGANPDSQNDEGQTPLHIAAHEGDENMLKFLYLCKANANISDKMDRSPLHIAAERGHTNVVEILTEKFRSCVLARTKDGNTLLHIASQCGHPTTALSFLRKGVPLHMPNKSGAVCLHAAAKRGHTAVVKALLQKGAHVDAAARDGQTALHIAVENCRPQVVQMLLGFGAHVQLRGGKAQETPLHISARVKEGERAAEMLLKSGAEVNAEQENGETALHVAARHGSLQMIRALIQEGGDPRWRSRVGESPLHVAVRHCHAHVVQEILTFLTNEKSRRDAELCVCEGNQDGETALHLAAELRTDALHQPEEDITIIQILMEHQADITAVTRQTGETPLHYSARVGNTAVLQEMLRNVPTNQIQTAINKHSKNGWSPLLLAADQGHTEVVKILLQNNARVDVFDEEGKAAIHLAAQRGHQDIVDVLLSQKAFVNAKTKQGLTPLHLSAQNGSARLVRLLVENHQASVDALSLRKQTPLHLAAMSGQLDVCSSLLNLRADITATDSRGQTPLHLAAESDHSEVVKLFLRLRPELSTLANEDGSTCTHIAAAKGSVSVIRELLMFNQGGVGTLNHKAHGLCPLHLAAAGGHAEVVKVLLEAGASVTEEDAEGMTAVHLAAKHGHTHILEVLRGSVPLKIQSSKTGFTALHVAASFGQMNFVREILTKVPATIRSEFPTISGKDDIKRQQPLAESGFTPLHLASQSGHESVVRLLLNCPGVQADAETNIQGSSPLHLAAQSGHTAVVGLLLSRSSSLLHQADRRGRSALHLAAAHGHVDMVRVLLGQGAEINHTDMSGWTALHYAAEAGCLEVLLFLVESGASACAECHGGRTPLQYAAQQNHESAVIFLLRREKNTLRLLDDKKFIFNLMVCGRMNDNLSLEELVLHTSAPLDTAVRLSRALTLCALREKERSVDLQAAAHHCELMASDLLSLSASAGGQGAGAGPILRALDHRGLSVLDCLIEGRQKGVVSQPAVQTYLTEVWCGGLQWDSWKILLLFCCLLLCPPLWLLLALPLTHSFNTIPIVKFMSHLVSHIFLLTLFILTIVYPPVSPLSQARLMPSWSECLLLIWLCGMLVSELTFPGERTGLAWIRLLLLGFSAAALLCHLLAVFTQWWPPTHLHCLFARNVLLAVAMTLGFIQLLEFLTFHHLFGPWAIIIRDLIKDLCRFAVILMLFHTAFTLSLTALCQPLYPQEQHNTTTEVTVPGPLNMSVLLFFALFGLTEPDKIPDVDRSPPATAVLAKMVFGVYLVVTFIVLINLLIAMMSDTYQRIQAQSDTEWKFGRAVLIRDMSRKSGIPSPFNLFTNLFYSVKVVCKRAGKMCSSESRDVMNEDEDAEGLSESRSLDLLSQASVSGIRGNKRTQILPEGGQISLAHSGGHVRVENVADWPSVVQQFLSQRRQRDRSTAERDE
# [23] = molecular target: T6, Estrogen receptor (Homo sapiens, UniProt P03372);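 also: potency for inhibiting coactivator peptide recruitment to the receptor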
# T6 sequence (P03372 whole entry): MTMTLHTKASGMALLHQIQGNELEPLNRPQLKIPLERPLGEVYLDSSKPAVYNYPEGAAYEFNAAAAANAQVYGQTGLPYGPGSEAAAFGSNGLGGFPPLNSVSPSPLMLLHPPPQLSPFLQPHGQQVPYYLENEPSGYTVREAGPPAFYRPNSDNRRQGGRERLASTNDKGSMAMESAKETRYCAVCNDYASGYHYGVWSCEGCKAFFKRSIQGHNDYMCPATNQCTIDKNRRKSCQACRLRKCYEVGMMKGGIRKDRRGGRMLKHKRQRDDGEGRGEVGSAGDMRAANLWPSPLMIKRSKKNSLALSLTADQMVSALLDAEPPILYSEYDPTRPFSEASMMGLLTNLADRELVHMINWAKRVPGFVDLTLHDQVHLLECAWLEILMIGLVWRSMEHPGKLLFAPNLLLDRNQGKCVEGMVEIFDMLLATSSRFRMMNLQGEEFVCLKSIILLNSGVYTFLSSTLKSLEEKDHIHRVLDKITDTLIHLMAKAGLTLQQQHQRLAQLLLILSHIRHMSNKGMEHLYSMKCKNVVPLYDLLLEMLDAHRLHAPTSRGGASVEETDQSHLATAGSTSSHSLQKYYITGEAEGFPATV
# [24] = molecular target: T7, Estrogen receptor beta (Homo sapiens, UniProt Q92731); experiment: ERβ–SRC-3 coactivator interaction inhibitors, confirmation, orthogonal assay, biochemical, ELISA, streptavidin-HRP readout (AID 1060)
# [25] = molecular target: T7, Estrogen receptor beta
# [26] = molecular target: Melanocortin receptor 4 (Homo sapiens, UniProt P32245); format: functional, cell-based;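 also: Cell-based assay with luminescence read-out, confirmatory dose-response testing for agonist activity of biased ligands at MC4R; human U2OS cells with tagged receptor and beta-arrestin; potency of agonists that increase receptor coupling to beta-arrestin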
# [27] = molecular target: T8, Voltage-gated N-type calcium channel alpha-1B subunit/Amyloid beta A4 precursor protein-binding family A member 1 (Homo sapiens, UniProt Q00975+Q02410); format: protein assay
# T8 sequence (Q00975 whole entry): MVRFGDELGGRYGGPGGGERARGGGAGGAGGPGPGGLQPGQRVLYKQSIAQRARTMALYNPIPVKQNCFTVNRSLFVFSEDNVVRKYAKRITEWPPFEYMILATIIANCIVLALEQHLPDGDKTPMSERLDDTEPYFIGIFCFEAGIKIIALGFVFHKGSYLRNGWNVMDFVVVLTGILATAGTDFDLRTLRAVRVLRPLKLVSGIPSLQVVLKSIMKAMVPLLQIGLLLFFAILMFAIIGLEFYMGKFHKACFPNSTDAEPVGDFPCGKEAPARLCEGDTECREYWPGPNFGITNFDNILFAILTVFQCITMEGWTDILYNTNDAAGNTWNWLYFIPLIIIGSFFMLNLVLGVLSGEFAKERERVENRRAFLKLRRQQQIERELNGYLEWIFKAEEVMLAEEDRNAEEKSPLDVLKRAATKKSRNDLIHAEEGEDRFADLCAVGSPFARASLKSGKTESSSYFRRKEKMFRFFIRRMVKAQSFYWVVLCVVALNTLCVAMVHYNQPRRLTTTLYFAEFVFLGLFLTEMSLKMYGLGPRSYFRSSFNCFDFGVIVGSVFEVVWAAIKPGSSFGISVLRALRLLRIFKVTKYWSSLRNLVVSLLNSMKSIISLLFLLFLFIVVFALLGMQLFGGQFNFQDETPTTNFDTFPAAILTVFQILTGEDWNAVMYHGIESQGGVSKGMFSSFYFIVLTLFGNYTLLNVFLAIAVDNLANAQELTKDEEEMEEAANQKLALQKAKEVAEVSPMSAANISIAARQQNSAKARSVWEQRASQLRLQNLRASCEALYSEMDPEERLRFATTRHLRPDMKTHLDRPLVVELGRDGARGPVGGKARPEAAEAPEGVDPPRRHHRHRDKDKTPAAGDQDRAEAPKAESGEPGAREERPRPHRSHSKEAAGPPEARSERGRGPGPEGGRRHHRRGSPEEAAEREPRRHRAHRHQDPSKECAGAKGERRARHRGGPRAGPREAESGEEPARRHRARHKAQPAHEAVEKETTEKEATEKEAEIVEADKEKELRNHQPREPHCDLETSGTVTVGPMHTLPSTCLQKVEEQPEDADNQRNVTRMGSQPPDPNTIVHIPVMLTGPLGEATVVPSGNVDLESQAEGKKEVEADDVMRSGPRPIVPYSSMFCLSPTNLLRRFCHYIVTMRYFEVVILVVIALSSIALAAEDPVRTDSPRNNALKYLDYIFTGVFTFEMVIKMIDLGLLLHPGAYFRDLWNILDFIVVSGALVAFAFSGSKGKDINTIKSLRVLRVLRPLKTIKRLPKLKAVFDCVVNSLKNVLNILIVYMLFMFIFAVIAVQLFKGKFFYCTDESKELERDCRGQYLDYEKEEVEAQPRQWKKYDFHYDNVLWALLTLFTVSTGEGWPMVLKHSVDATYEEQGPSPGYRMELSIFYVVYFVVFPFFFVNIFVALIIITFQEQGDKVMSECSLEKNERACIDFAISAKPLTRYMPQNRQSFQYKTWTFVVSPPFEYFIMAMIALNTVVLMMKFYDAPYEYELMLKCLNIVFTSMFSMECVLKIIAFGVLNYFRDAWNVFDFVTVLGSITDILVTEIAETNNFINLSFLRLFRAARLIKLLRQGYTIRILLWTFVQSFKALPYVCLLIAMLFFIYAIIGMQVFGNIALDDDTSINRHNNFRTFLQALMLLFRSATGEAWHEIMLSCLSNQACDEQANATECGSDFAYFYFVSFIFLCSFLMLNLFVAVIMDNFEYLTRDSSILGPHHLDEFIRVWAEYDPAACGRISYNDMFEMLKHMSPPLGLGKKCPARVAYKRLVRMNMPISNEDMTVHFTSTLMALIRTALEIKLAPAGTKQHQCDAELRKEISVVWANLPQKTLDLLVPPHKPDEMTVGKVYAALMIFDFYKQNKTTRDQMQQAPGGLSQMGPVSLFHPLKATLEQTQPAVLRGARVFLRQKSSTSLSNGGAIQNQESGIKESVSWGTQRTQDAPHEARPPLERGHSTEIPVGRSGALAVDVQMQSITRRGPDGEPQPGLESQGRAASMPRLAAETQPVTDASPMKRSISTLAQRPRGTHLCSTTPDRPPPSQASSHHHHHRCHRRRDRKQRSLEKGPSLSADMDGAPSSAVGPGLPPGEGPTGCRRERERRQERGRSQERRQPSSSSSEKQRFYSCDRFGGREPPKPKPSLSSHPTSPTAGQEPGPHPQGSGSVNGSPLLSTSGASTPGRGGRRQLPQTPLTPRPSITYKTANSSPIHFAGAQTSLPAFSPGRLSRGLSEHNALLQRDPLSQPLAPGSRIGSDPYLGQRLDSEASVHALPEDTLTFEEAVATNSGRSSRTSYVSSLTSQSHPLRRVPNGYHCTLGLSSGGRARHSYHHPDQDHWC
# T8 sequence (Q02410 whole entry): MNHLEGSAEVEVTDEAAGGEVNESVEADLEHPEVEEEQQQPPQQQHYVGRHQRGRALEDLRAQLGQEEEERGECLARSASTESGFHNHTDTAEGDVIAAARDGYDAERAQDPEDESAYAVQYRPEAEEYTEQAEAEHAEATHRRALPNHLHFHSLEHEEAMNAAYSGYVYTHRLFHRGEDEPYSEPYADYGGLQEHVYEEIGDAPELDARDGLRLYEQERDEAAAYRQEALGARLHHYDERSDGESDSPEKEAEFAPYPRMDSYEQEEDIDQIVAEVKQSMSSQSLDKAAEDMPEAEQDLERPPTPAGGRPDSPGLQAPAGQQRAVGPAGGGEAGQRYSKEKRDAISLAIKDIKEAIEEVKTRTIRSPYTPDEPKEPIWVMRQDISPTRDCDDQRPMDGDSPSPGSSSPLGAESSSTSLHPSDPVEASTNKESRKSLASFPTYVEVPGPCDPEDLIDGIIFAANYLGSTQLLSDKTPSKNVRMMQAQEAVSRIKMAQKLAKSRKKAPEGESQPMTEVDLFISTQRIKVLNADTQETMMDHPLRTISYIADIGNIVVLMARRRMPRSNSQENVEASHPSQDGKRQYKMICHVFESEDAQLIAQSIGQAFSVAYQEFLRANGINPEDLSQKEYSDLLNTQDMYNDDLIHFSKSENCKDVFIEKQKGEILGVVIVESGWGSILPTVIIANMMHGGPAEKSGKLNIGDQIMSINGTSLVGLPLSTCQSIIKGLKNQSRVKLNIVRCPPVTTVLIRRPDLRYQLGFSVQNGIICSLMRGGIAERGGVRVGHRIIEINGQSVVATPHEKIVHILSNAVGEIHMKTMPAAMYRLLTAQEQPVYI
# [28] = molecular target: T8, Voltage-gated N-type calcium channel alpha-1B subunit/Amyloid beta A4 precursor protein-binding family A member 1; format: protein assay; remark: listed apart in the source
smiles,measurement,setting,value
CCOc1ccc(N2C(=O)CC(Sc3n[nH]c(-c4ccccc4)n3)C2=O)cc1 (stereo not given),IC50,[1],> 100 µM (inactive)
same,IC50,[2],11.1 µM (active)
same,IC50,[3],14 µM (active)
Cn1c(=O)n(-c2ccc(Cl)cc2)c(=O)n([C@@H](Cc2ccccc2)C(N)=O)c1=O,IC50,[4],> 100 µM (not active)
same,IC50,[5],> 100 µM (inactive)
same,IC50,[6],> 100 µM (inactive)
same,IC50,[7],> 100 µM (not active)
O=c1[nH]n(-c2ccc([N+](=O)[O-])cc2)c(=O)c2ccccc12,IC50,[8],> 20 µM (inactive)
CN(C)CCCN1c2ccccc2Sc2ccc(Cl)cc21 [CHLORPROMAZINE],IC50,[9],> 17 µM (not active)
O=C(NNC(=O)c1cc(Br)ccc1O)c1csc(N2CCOCC2)n1,AC50,[10],2.75 µM (active)
CCCCCCN1C(=O)NC(=O)/C(=C\Nc2c(C)n(C)n(-c3ccccc3)c2=O)C1=O,EC50,[11],> 79.4 µM (not active)
same,EC50,[12],> 79.4 µM (not active)
same,EC50,[13],> 79.4 µM (not active)
same,EC50,[14],1.31 µM (active)
O=C(Nc1ccc(Cl)c(Cl)c1)Nc1ccc(N2CCCC2)c(S(=O)(=O)Nc2ccccc2Cl)c1,AC50,[15],27 µM (active)
same,EC50,[16],3.8 µM (active)
same,AC50,[17],5.13 µM (active)
same,EC50,[18],3.35 µM (active)
same,AC50,[10],12.7 µM (active)
same,AC50,[19],11.4 µM (active)
COc1cc(C(=S)N2CCOCC2)cc(OC)c1OC(=O)c1cc([N+](=O)[O-])c(C)c([N+](=O)[O-])c1,EC50,[11],> 79.4 µM (not active)
same,EC50,[12],> 79.4 µM (not active)
same,EC50,[13],> 79.4 µM (not active)
Cc1cc(C)nc(/N=C(\N)Nc2cccc(N)c2)n1,EC50,[20],5.45 µM (active)
CCCCCCCCCCCCCCCCCCC#CCCCCCCCCCCCC(=O)O,IC50,[4],> 100 µM (not active)
same,IC50,[5],> 100 µM (inactive)
same,IC50,[6],> 100 µM (inactive)
same,IC50,[7],28.3 µM (active)
O=C1C=CC2=C3Oc4c(ccc5cc(O)ccc45)C(c4ccccc4C(=O)O)C3C=CC2=C1 (stereo not given),EC50,[20],1.68 µM (active)
CCOc1ccccc1N1CCN(S(=O)(=O)c2ccc(Cl)s2)CC1,EC50,[21],8.16 µM (active)
same,EC50,[22],> 29.9 µM (not active)
Cc1ccc(S(=O)(=O)N2C(=S)SCC2(C)C)cc1,EC50,[21],7.22 µM (active)
same,EC50,[22],> 29.9 µM (not active)
O=C(Cc1ccccc1)NNC(=O)Cc1ccccc1,IC50,[9],> 17 µM (not active)
CCN1C(=O)/C(=C2/Sc3ccc(OC)cc3N2C)S/C1=N\c1cccc(O)c1,IC50,[23],> 50 µM (not active)
same,IC50,[24],60.4 nM (not active)
same,IC50,[25],> 50 µM (not active)
same,EC50,[26],> 89.2 µM (inactive)
CN(CCOC(=O)/C=C/c1ccco1)Cc1ccccc1,IC50,[27],18.5 µM (active)
same,IC50,[28],29.1 µM (active)
